Results taken from patent US8802678B2, “Carbonylated (aza) cyclohexanes as dopamine D3 receptor ligands” (Bioprojet, priority 2006, dated 2014).

| melting point [°C] | Compound |
| --- | --- |
| 202 | Cc1ccc(N2CCN(CC[C@H]3CC[C@H](NC(=O)C4=CCCC4)CC3)CC2)c(F)c1 [Example 518, Cyclopent-1-enecarboxylic acid (4-{2-[4-(2-fluoro-4-methylphenyl)piperazin-1-yl]ethyl}cyclohexyl) amide] |
| 104 | CCOCC(=O)N[C@H]1CC[C@H](CCN2CCN(c3cc(C(C)(C)C)nc(C(C)(C)C)n3)CC2)CC1 [Example 121, N-(4-{2-[4-(2,6-Di-tert-butylpyrimidin-4-yl)piperazin-1-yl]ethyl}cyclohexyl)-2-ethoxyacetamide] |
| 149 | COCCCC(=O)N[C@H]1CC[C@H](CCN2CCN(c3cccc(C(F)(F)F)c3)CC2)CC1 [Example 64, 4-Methoxy-N-(4-{2-[4-(3-trifluoromethylphenyl)piperazin-1-yl]ethyl}cyclohexyl)butanamide] |
| 107 | CC(=O)CN1CCC(CCN2CCN(c3cc(F)cc(Cl)c3)CC2)CC1 [Example 581, 1-(4-{2-[4-(3-Chloro-5-fluorophenyl)piperazin-1-yl]ethyl}piperidin-1-yl)propan-2-one] |
| 202 | COc1ccccc1N1CCN(CC[C@H]2CC[C@H](NC(=O)C3CC=CC3)CC2)CC1 [Example 372, Cyclopent-3-enecarboxylic acid (4-{2-[4-(2-methoxyphenyl)piperazin-1-yl]ethyl}cyclohexyl) amide] |
| 275 | CC(=O)CN1CCC(CCN2CCN(c3ccc(C)c(C)c3)CC2)CC1.Cl.Cl |
| 154 | N#CCCCC(=O)N[C@H]1CC[C@H](CCN2CCN(c3ccc(F)cc3)CC2)CC1 [Example 283, 4-Cyano-N-(4-{2-[4-(4-fluorophenyl)piperazin-1-yl]ethyl}cyclohexyl)butanamide] |
| 179 to 180 | N#CCC(=O)N[C@H]1CC[C@H](CCN2CCN(c3ccccc3F)CC2)CC1 [Example 79, 2-Cyano-N-(4-{2-[4-(2-fluorophenyl)piperazin-1-yl]ethyl}cyclohexyl)acetamide] |
| 162 | N#CCCCC(=O)N[C@H]1CC[C@H](CCN2CCN(c3ccc(Cl)cc3Cl)CC2)CC1 [Example 762, 4-Cyano-N-(4-{2-[4-(2,4-dichlorophenyl)piperazin-1-yl]ethyl}cyclohexyl)butanamide] |
| 210 | Cl.N#CCC(=O)N1CCC(CCN2CCN(c3cccc4c3CCC4)CC2)CC1 |
| 188 | N#CCCCC(=O)N[C@H]1CC[C@H](CCN2CCN(c3cc(C(F)(F)F)c(Cl)cc3Cl)CC2)CC1 [Example 424, 4-Cyano-N-(4-{2-[4-(2,4-dichloro-5-trifluoromethylphenyl)piperazin-1-yl]ethyl}cyclohexyl)butanamide] |
| 172 | O=C(COc1ccccc1)N[C@H]1CC[C@H](CCN2CCN(c3ccccc3F)CC2)CC1 [Example 88, N-(4-{2-[4-(2-Fluorophenyl)-piperazin-1-yl]ethyl}cyclohexyl)-2-phenoxyacetamide] |
| 265 | Cl.Cl.O=C(CN1CCC(CCN2CCN(c3cccc(C(F)(F)F)c3)CC2)CC1)c1ccc(F)cc1 |
| 179 | N#CCCCC(=O)N[C@H]1CC[C@H](CCN2CCN(c3cc(Cl)ccc3Cl)CC2)CC1 [Example 371, 4-Cyano-N-(4-{2-[4-(2,5-dichlorophenyl)piperazin-1-yl]ethyl}cyclohexyl)butanamide] |
| 202 | N#CCC(=O)N[C@H]1CC[C@H](CCN2CC=C(c3ccc(F)cc3)CC2)CC1 |
| 217 | N#CCC(=O)N[C@H]1CC[C@H](CCN2CC=C(c3ccc(C(F)(F)F)cc3)CC2)CC1 |
| 199 | O=C(N[C@H]1CC[C@H](CCN2CCN(c3cc(F)c(F)cc3F)CC2)CC1)C1=CCCC1 [Example 523, Cyclopent-1-enecarboxylic acid (4-{2-[4-(2,4,5-trifluorophenyl)piperazin-1-yl]ethyl}cyclohexyl) amide] |
| 156 | N#CCCCC(=O)N[C@H]1CC[C@H](CCN2CCN(c3cc(F)c(F)c(F)c3)CC2)CC1 [Example 374, 4-Cyano-N-(4-{2-[4-(3,4,5-trifluorophenyl)piperazin-1-yl]ethyl}cyclohexyl)butanamide] |
| 119 to 120 | O=C(N[C@H]1CC[C@H](CCN2CCN(c3ccccc3F)CC2)CC1)C1CCCO1 (stereo partly drawn) [Example 57, Tetrahydrofuran-2-carboxylic acid (4-{2-[4-(2-fluorophenyl)piperazin-1-yl]ethyl}cyclohexyl)amide] |
| 159 | CC(=O)CCC(=O)N[C@H]1CC[C@H](CCN2CCN(c3cccc(C(F)(F)F)c3)CC2)CC1 [Example 191, 4-Oxo-pentanoic acid (4-{2-[4-(3-trifluoromethylphenyl)piperazin-1-yl]ethyl}cyclohexyl)amide] |
| 171 to 173 | N#CCCCC(=O)N[C@H]1CC[C@H](CCN2CCN(c3cccc(Cl)c3)CC2)CC1 [Example 229, N-(4-{2-[4-(3-Chlorophenyl)-piperazin-1-yl]ethyl}cyclohexyl)-4-cyanobutanamide] |
| 240 | N#CCC(=O)N[C@H]1CC[C@H](CCN2CCN(c3ccc(C(F)(F)F)cc3)CC2)CC1 [Example 274, 2-Cyano-N-(4-{2-[4-(4-trifluoromethylphenyl)piperazin-1-yl]ethyl}cyclohexyl)acetamide] |
| 218 | CC(=O)NCC(=O)N[C@H]1CC[C@H](CCN2CCN(c3cccc(F)c3F)CC2)CC1 [Example 145, 2-Acetylamino-N-(4-{2-[4-(2,3-difluorophenyl)piperazin-1-yl]ethyl}cyclohexyl)acetamide] |
| 142 | CCCc1cccc(N2CCN(CC[C@H]3CC[C@H](NC(=O)CCCC#N)CC3)CC2)c1 [Example 312, 4-Cyano-N-(4-{2-[4-(3-propylphenyl)piperazin-1-yl]ethyl}cyclohexyl)butanamide] |
| 227 | Cc1ccc(N2CCN(CC[C@H]3CC[C@H](NC(=O)C4=CCCC4)CC3)CC2)cc1 [Example 475, Cyclopent-1-enecarboxylic acid {4-[2-(4-p-tolylpiperazin-1-yl)ethyl]cyclohexyl} amide] |
| 165 | Cc1cc(Cl)cc(N2CCN(CC[C@H]3CC[C@H](NC(=O)CCCC#N)CC3)CC2)c1 [Example 438, N-(4-{2-[4-(3-Chloro-5-methylphenyl)piperazin-1-yl]ethyl}cyclohexyl)-4-cyanobutanamide] |
| 211 | COCCCC(=O)N[C@H]1CC[C@H](CCN2CCN(c3ccc(F)c(C#N)c3F)CC2)CC1 [Example 692, N-(4-{2-[4-(3-Cyano-2,4-difluorophenyl)piperazin-1-yl]ethyl}cyclohexyl)-4-methoxybutanamide] |
| 238 | NC(=O)CCC(=O)N[C@H]1CC[C@H](CCN2CCN(c3cc(C(F)(F)F)ccc3F)CC2)CC1 [Example 631, N-(4-{2-[4-(2-Fluoro-5-trifluoromethylphenyl)piperazin-1-yl]ethyl}cyclohexyl)succinamide] |
| 240 | CCOC(=O)CN1CCC(CCN2CCN(c3cccc(C(F)(F)F)c3)CC2)CC1.Cl.Cl |
| 152 to 153 | Cc1ccc(Cl)cc1N1CCN(CC[C@H]2CC[C@H](NC(=O)CCCC#N)CC2)CC1 [Example 248, N-(4-{2-[4-(5-Chloro-2-methylphenyl)piperazin-1-yl]ethyl}cyclohexyl)-4-cyanobutanamide] |
